For data set [1], the system named is A2780 human ovarian carcinoma cell line. Description: cells. On the procedure: (§1) Growth inhibition (using the sulforhodamine B assay) was determined for ZDO473 alone, and combined either simultaneously or administered sequentially (following washing) for 24 hours with paclitaxel. The effect of the drug combinations was analysed using median effect analysis.
The subject of data set [2] is CH1 human ovarian carcinoma cell line. Nature of the data set: cells. Conditions: read-out: IC50 growth inhibition. On the procedure:
as §1

The test system of data set [3] is A2780cisR acquired cisplatin resistant subline. Nature of the data set: Growth inhibition (sulforhodamine B assay), A2780cisR. The format is cell-based, human. As to conditions: for IC50: A2780cisR, drug alone. The method, then: as §1
A general note: In SRB staining, fixed cells bind dye roughly in proportion to their protein.

Data set [4] deals with A2780 E6 (A2780 subline transfected with E6 human papillomavirus gene). Nature of the data set: Growth inhibition (sulforhodamine B assay), A2780E6. The data set is classed as cell-based.
For the next data set, the system named is 41McisR ovarian line. Conditions: resistance to cisplatin due to reduced uptake.
The conditions of data set [5]: monotherapy Phase I trial, interim results; cited from earlier work.
Another data set relates to human tumour xenografts. Nature of the data set: In-vivo studies in human tumour xenografts. As to conditions: compared with cisplatin.
Another data set has as its system ADJ/PC6cisR tumour. Nature of the data set: Murine acquired cisplatin resistant tumour. Conditions: tumour totally resistant to other platinum agents.
Data set [6] has as its system cisplatin-resistant CH1 ovarian tumour xenograft. Description: Cisplatin-resistant CH1 ovarian tumour xenograft. Conditions: even when progressing on cisplatin treatment.

Where two headings read alike, the source gives them in different places.

As usually defined, the IC50 is the concentration that gives 50% inhibition. Consider `CC(=O)O[C@H]1C(=O)[C@@]2(C)[C@H]([C@H](OC(=O)c3ccccc3)[C@]3(O)C[C@H](OC(=O)[C@H](O)[C@@H](NC(=O)c4ccccc4)c4ccccc4)C(C)=C1C3(C)C)[C@]1(OC(C)=O)CO[C@@H]1C[C@@H]2O` [Paclitaxel, paclitaxel, reference compound], for which the concentration for half-maximal inhibition (IC50) was 2.5 nM in [1] (Homo sapiens, A2780, read-out: IC50 growth inhibition); 3.1 nM in data set [2] (Homo sapiens, Ovarian carcinoma cell); 3.5 nM in data set [3] (Homo sapiens); 20.8 nM in [4] (Homo sapiens, A2780/E6, drug alone).

For the molecule `Cc1ccccn1.N.[Cl-].[Cl-].[Pt+2]` [ZDO473, (SP-4-3)-(cis-amminedichloro-[2-methylpyridine]platinum (II)], the half-inhibitory concentration (IC50) turned out to be 3700 nM in data set [1] (read-out: IC50 growth inhibition, A2780, 96 hour continuous exposure, drug alone); 3300 nM in data set [2] (CH1, 96 hour continuous exposure, drug alone); 15600 nM in data set [3] (96 hour continuous exposure); 8600 nM in data set [4] (96 hour continuous exposure, drug alone). Besides, the “cross-resistance of A2780cisR” value in data set [3] (A2780cisR versus A2780) is on record as 4.2 fold. The “recommended dose for phase II studies, initial” value (every 3 weeks) amounted to 120 mg/m^2. In addition, the current recommended dose (patients who tolerate higher doses) came to 150 mg/m^2. Also, the “antitumour activity in patients” value (small & non-small cell lung cancer, mesothelioma, head and neck, breast and ovarian cancers) was “Evidence of antitumour activity has been observed”. For the same molecule, the “ability to overcome cisplatin resistance” value in the data set on 41McisR ovarian line is “showed the ability to overcome resistance”. Also, the dose-limiting toxicity entry in [5] is listed as “bone marrow suppression”. The “kidney or nerve toxicity” value in [5] is recorded as “no evidence of kidney or nerve toxicity”. Moreover, the “activity in human tumour xenografts” value in the data set on human tumour xenografts was “at least comparable and in some cases superior to that of cisplatin”. Moreover, the “activity against acquired cisplatin resistant murine tumour” value with ADJ/PC6cisR tumour is recorded as “some activity was seen”. Moreover, the “activity versus cisplatin-resistant xenograft” value in data set [6] is reported as “Activity was retained”.

For the molecule `N.N.[Cl][Pt][Cl]` [cisplatin, cis-dichlorodiammine platinum (II), reference compound], the “acquired cisplatin resistance of subline” value in data set [3] (A2780cisR versus A2780) was 15 fold.

The record behind these values is patent US20040053882A1, “Combination chemotherapy” (priority 2000, published 2004).
